According to paper PMC12135066, “Design and Preclinical Evaluation of Novel uPAR-Targeting Radiopeptides Modified with an Albumin-Binding Entity” (Molecular Pharmaceutics, 2025):

Legend:
human uPAR = target: T1, human uPAR (Homo sapiens, UniProt Q03405); assay: uPAR-binding affinity (KD values), saturation experiments with HEK-uPAR cells; conditions: saturation binding on HEK-uPAR cells, on ice (4 °C) 1 h, 1–1600 nM radiopeptide, ± AE105 40 µM; γ-counter; nonlinear regression; average ± SD, n=3
T1 construct: host or cells: HEK cells (HEK-uPAR)
Procedure: To determine the uPAR-binding affinity of the radiopeptides, saturation experiments were performed using HEK-uPAR cells in 48-well plates (Supporting Information). The cells were incubated on ice for 1 h in the presence or absence of excess AE105 (final concentration of 40 μM) together with the respective radiopeptide at a concentration range of 1–1600 nM. After rinsing the cells with PBS, they were lysed with an aqueous NaOH solution (1 M, 600 μL), transferred to radioimmunoassay tubes, and measured in a γ-counter (1480 Wizard, PerkinElmer). The K D values were determined by plotting the specific binding (values of samples incubated without AE105 minus the values of samples incubated with AE105) against the molar concentration of the added peptide. A nonlinear regression analysis was performed using GraphPad Prism software (version 8.3.1). The results were expressed as average ± SD of n = 3 independently performed experiments. […]
7. Determination of uPAR-Binding Affinity (KD Values)
Purpose: The uPAR-binding affinity of the radiopeptides were determined to investigate the impact of structural changes on the receptor binding.
Methods: HEK-uPAR cells were seeded in poly-D-lysine-coated 48-well plates (0.25 × 10 6 in 0.5 mL per well) using DMEM cell culture medium with supplements. The cells were incubated at 37 °C and 5% CO2 overnight to allow adhesion and growth. After removing the supernatant, the well plates with HEK-uPAR cells were placed on ice to prevent internalization of the radiopeptides. The cells were rinsed with cold PBS (0.5 mL, pH 7.4) followed by the addition of DMEM cell culture medium without supplements (450 µL/well) in the presence or absence of AE105 ( final concentration 40 µM) as a receptor-blocking agent. The radiopeptides (5 MBq/nmol) were diluted in PBS to obtain peptide concentrations ranging from 10 ‒16000 nM. From each dilution, 50 µL were added to each well to obtain final peptide concentrations of 1 nM to 1600 nM. The cells were incubated at 4 °C for 1 h before rinsing twice with PBS (0.5 mL, pH 7.4). The cells were lysed using an aqueous NaOH solution (1 M, 600 µL) and the lysates were transferred to RIA tubes for counting the activity in a γ-counter (1480 Wizard, PerkinElmer) . The KD values were determined by plotting specific binding (total binding minus unspecific binding) against the molar concentration of the added radiopeptide using GraphPad Prism (version 8.3.1). the results were then expressed as average K D values ± SD of n = 3 independent […]
Results: The results are reported in the main article.

[1] = Stability of the radiopeptides in mouse blood plasma; conditions: mouse
Procedure: (§1) The radiopeptides (50 MBq/nmol) stabilized with L-ascorbic acid were diluted in mouse and human blood plasma and incubated at 37 °C. Aliquots were taken after 1, 4, and 24 h and analyzed using reversed-phase thin-layer chromatography (TLC) (Supporting Information).
(§2) aProduct peak expressed as percentage of the sum of integrated peak areas of the entire chromatogram relative to
(§3) the value obtained immediately after labeling (set as 100%), average ± standard deviation (SD) (n=3).
(§4) Stability of the Radiopeptides in Mouse and Human Blood Plasma
(§5) Purpose: The stability of the radiopeptides was assessed in mouse and human blood plasma as an
indication for their in vivo stability.
(§6) Methods: The radiopeptides (50 MBq/nmol) stabilized with L-ascorbic acid were diluted in mouse
(§7) blood plasma (Lot: 32321, Rockland Immunochemicals Inc., U.S.A.) or in human blood plasma
(§8) (Stiftung Blutspende SRK Aargau -Solothurn, Switzerland) at a concentration of 10 MBq/200 µL and
(§9) incubated at 37 °C over a 24 h time period. Control samples were prepared by diluting the radiopeptides
(§10) in saline at the same activity concentration. Aliquots of each dilution were taken after 1 h, 4 h, and 24 h
(§11) (2 µL, ~100 kBq) and investigated employing thin layer chromatography (TLC) methods on reversed-
(§12) phase TLC plates (MERCK Analytical Chromatography, TLC Silica gel 60 RP -18 F254s) as stationary
(§13) phase and a 3/7 (v/v) mixture of acetonitrile /citrate buffer (0.1 M, pH 5.5) as mobile phase. A dilution
(§14) of [177Lu]LuCl3/HCl 0.04 M (10 MBq/200 µL) was added on each TLC plate. The developed and dried
(§15) TLC plates were exposed to a phosphor screen (Super resolution screen PSR10450013, PerkinElmer)
(§16) for 1 min. The screen was read with a Cyclone Plus phosphor imager (PerkinElmer) and the peak
(§17) quantification was performed using OptiQuant Software (version 5.0).

[2] = Stability of the radiopeptides in human blood plasma; conditions: human
Procedure: as §1, §2, §3, §4, §5
indication for their in vivo stability.
as §6, §7, §8, §9, §10, §11, §12, §13, §14, §15, §16, §17

[3] = n-Octanol/PBS distribution coefficients (logD values); conditions: n-octanol/PBS pH 7.4, pH 7.4
[4] = Biodistribution studies in HEK-uPAR xenograft-bearing nude mice; conditions: female, CD1/nude, mouse, 5 MBq (0.5 nmol), total radioactivity, 5 MBq, 0.5 nmol, decay-corrected, average ± SD, n=3 animals; for tissue uptake at 4 h: 4 h p.i.; for tissue uptake at 24 h: 24 h p.i.
Procedure: (§18) All applicable international, national, and/or institutional guidelines for the care and use of laboratory animals were followed, and the herein reported experiments were carried out according to the guidelines of the Swiss Regulations for Animal Welfare. The preclinical studies were ethically approved by the Cantonal Committee of Animal Experimentation and permitted by the responsible cantonal authorities (License No. 75721). Five-week-old female CD1/nude (Crl:CD1-Foxn ^ nu ) and female immunocompetent FVB (FVB/NCrl) mice were obtained from Charles River Laboratories (Sulzfeld, Germany). All mice were acclimatized for at least 7 days, receiving standard rodent chow ad libitum before being included in the reported studies. The CD1/nude mice were subcutaneously inoculated with HEK-uPAR cells (7 × 10^6 cells in 100 μL PBS) on the right shoulder. […] Typically, it took 3–11 weeks to reach xenograft volumes of 40–600 mm^3 at the time of testing the tissue distribution of the radiopeptides. The immunocompetent FVB mice were used for testing the in vivo stability of the radiopeptides.
(§19) The mice were injected with the radiopeptides (5 MBq, 0.5 nmol, 100 μL) in saline containing 0.05% BSA and sacrificed at 4 and 24 h after injection of the radiopeptides. Selected tissues and organs were collected, weighed, and measured with the γ-counter (1480 Wizard, PerkinElmer). […] A p-value of <0.05 was considered a statistically significant difference (GraphPad Prism software, version 8.3.1).
(§20) Decay-corrected data is shown as average ± SD of n = 3 animals of % injected activity per gram (IA/g) tissue.

[5] = test system: HEK-uPAR xenograft-bearing nude mice; assay: as above; conditions: average ± SD, n=3 animals
Procedure: as §18, §19, §20

[6] = Radiolytic stability of the radiopeptides in saline with L-ascorbic acid; conditions: 50 MBq/nmol in saline, 150 MBq/300 µL, L-ascorbic acid (3 mg, 20 µL) and NaOAc (0.5 M, 30 µL), HPLC, product peak relative to t=0 (100%), average ± SD, n=3
Procedure: The radiolytic stability of the radiopeptides (50 MBq/nmol) in saline (150 MBq/300 μL) was assessed in the absence and presence of L-ascorbic acid (3 mg added in a volume of 20 μL). After an incubation period of 1, 4, and 24 h, aliquots of the solutions were analyzed using HPLC. The integrated peak area representing the intact radiopeptide was expressed as the percentage of the sum of all peaks of the chromatogram. The final amount of intact radiopeptide was expressed as the percentage of the product peak obtained at t = 0, which was set as 100% (Supporting Information).
The radiolytic stability of [177Lu]Lu-DOTA-AE105 and the new 177Lu-labeled uPAR-targeting
radiopeptides (50 MBq/nmol) was assessed in vitro in the formulated solution . The radiopeptide s were
diluted in saline to obtain an activity concentration of 150 MBq in 300 µL in the presence of L-ascorbic
acid (3 mg, 20 µL) and NaOAc (0.5 M, 30 µL) to compensate for the acidic pH. Aliquots of the dilutions
were analyzed using HPLC after incubation periods of 1 h, 4 h and 24 h . The integrated peak area
measured for the intact radioligand peak was expressed as the percentage of the sum of the integrated
peak areas of each peak present in the chromatogram. The final amount of intact radiopeptide at t = 1 h,
4 h and 24 h was expressed by correcting the obtained percentage of the product peak to this peak
obtained at t = 0, which was set as 100%.

[7] = test system: human serum albumin (HSA); assay: Albumin-binding properties in human blood plasma (ultrafiltration assay); conditions: ultrafiltration (Amicon, 10 kDa), human blood plasma dilutions in PBS pH 7.4, [HSA]-to-[radiopeptide] 0.01–20000, 0.006 nmol, 37 °C 30 min, γ-counter; inverse ratio of B50, [177Lu]Lu-uPAR-01 set as 1.00; average curve of 3 experiments
Procedure: The relative albumin-binding affinities of the radiopeptides in mouse and human blood plasma were determined using an ultrafiltration assay with Amicon centrifugal filters (cutoff of 10 kDa; Merck Millipore), as previously reported (Supporting Information). A fixed amount of the respective radiopeptide (15 μL, ∼300 kBq, 0.006 nmol) was added to a defined volume (150 μL) of mouse and human blood plasma dilutions to obtain [mouse serum albumin (MSA)]-to-[radiopeptide] and [human serum albumin (HSA)]-to-[radiopeptide] molar concentration ratios of 0.01–12,500 and 0.01–20,000, respectively. The data were analyzed using a semilogarithmic Hill plot with the maximum binding set as 100% (GraphPad Prism software, version 8.3.1).
Determination of the Albumin-Binding Properties
Purpose: The radiopeptides were investigated with regard to their albumin-binding capabilities in vitro
as a measure to predict blood retention in vivo.
Methods: The relative albumin-binding affinity of the radiopeptides in mouse blood plasma (Rockland
Immunochemicals, Inc., U.S.A.) and human blood plasma (Stiftung Blutspende SRK Aargau-
Solothurn, Switzerland) were determined using an ultrafiltration method. The amount of mouse serum
albumin (MSA) and human serum albumin (HSA) in mouse and human blood plasma was defined as
550 μM and 800 μM, respectively, based on measurements using a dry chemistry analyzer (DRI-CHEM
4000i, FUJIFILM, Japan). A fixed amount of radiopeptide (50 MBq/nmol, ~300 kBq, 15 μL, 0.006
nmol) was added to a defined volume (150 μL) of mouse and human blood plasma and various dilutions
thereof in PBS pH 7.4, resulting in defined [MSA]-to-[radiopeptide] or [HSA]-to-[radiopeptide] molar
concentration ratios ranging from 0.01 ‒12500 and 0.01‒20000, respectively, followed by incubation of
the samples at 37 °C for 30 min. Ice-cold PBS (150 µL, pH 7.4) was added before loading the blood
plasma samples on Amicon centrifugal filters (cut -off of 10 kDa; Merck Millipore) followed by
centrifugation (14000 rcf, 30 min, 4 °C) to allow the separation of the plasma protein -bound from the
plasma-unbound (free) fractions of each sample. The inserts of the filter devices were inverted and centrifuged at 200 rcf for 3 min to recover the protein -bound radiopeptide. The activity in the filtrate
and filter unit was measured in a γ-counter (1480 Wizard, PerkinElmer) and the counts were combined
assuming that the fraction retained in the filter membrane was not bound to proteins. The protein -bound
fraction was expressed as percentage of the whole activity (i.e. plasma protein -bound activity, activity
measured in the filtrate and activity measured in the filter (set as 100%) ). The data were analyzed using
a semi-logarithmic plot assuming a maximum binding of 100%. The Hill equation was fitted to the data
points and the half -maximum binding ( B50) based on the average curve obtained from three independent
experiments (GraphPad Prism software, version 8.3 .1). The relative albumin-binding affinit ies of the
reference compound, whose relative binding affinity was set as 1.0. The results were presented as the
B50 value obtained from the average curve from 3 independent experiments.

[8] = HEK-uPAR xenograft, HEK-uPAR xgft

T1 sequence (Q03405 23-335): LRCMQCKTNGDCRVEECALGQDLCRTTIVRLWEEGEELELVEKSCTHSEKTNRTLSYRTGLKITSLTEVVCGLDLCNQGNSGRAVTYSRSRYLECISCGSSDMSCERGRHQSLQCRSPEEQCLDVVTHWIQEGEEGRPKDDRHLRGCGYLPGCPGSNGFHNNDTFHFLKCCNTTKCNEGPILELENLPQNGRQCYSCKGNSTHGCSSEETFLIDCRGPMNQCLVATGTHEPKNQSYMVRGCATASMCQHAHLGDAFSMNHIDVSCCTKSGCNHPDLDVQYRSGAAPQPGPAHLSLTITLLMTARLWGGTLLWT

Kd (human uPAR): 48 ± 6 nM | remaining at 1 h, 10 MBq/200 µL ([1]; blood plasma): 100% | remaining at 24 h, 10 MBq/200 µL ([1]; blood plasma): 99 ± 1% | remaining at 4 h, 10 MBq/200 µL ([1]; mouse blood plasma): 100% | remaining at 1 h, 10 MBq/200 µL ([2]; blood plasma): 100% | remaining at 24 h, 10 MBq/200 µL ([2]; blood plasma): 99 ± 1% | remaining at 4 h, 10 MBq/200 µL ([2]; human blood plasma): 99 ± 2% | logD [3]: 0.78 ± 0.05 | tissue uptake at 4 h [4, 8]: 9.2 ± 0.2 %ID/g | tissue uptake at 24 h [4, 8]: 5.8 ± 0.6 %ID/g | tissue uptake at 4 h ([4]; blood): 16 ± 1 %ID/g | tissue uptake at 24 h ([4]; blood): 4.5 ± 0.2 %ID/g | tissue uptake at 4 h ([4]; bone): 1.9 ± 0.1 %ID/g | tissue uptake at 24 h ([4]; bone): 0.81 ± 0.01 %ID/g | tissue uptake at 4 h ([4]; brain): 0.32 ± 0.02 %ID/g | tissue uptake at 24 h ([4]; brain): 0.1 ± 0.01 %ID/g | tissue uptake at 4 h ([4]; heart): 5.7 ± 0.2 %ID/g | tissue uptake at 24 h ([4]; heart): 1.9 ± 0.1 %ID/g | tissue uptake at 4 h ([4]; intestines): 2.3 ± 0.3 %ID/g | tissue uptake at 24 h ([4]; intestines): 0.94 ± 0.04 %ID/g | tissue uptake at 4 h ([4]; kidneys): 5.6 ± 0.2 %ID/g | tissue uptake at 24 h ([4]; kidneys): 4.2 ± 0.8 %ID/g | tissue uptake at 4 h ([4]; liver): 6.4 ± 0.3 %ID/g | tissue uptake at 24 h ([4]; liver): 1.8 ± 0.2 %ID/g | tissue uptake at 4 h ([4]; lung): 9.4 ± 1 %ID/g | tissue uptake at 24 h ([4]; lung): 3.3 ± 0.3 %ID/g | tissue uptake at 4 h ([4]; muscle): 1.4 ± 0.2 %ID/g | tissue uptake at 24 h ([4]; muscle): 0.57 ± 0.07 %ID/g | tissue uptake at 4 h ([4]; pancreas): 2 ± 0.3 %ID/g | tissue uptake at 24 h ([4]; pancreas): 0.77 ± 0.04 %ID/g | tissue uptake at 4 h ([4]; salivary glands): 3.6 ± 0.3 %ID/g | tissue uptake at 24 h ([4]; salivary glands): 1.5 ± 0.1 %ID/g | tissue uptake at 4 h ([4]; spleen): 2.7 ± 0.1 %ID/g | tissue uptake at 24 h ([4]; spleen): 1.7 ± 0.2 %ID/g | tissue uptake at 4 h ([4]; stomach): 2 ± 0.1 %ID/g | tissue uptake at 24 h ([4]; stomach): 0.78 ± 0.08 %ID/g | Xenograft-to-blood ratio ([5]; 4 h p.i.): 0.57 ± 0.01 | Xenograft-to-kidney ratio ([5]; 4 h p.i.): 1.6 ± 0.1 | Xenograft-to-liver ratio ([5]; 4 h p.i.): 1.4 ± 0.1 | Xenograft-to-blood ratio ([5]; 24 h p.i.): 1.3 ± 0.1 | Xenograft-to-kidney ratio ([5]; 24 h p.i.): 1.4 ± 0.3 | Xenograft-to-liver ratio ([5]; 24 h p.i.): 3.3 ± 0.3 | radiolytic stability, % intact radiopeptide ([6]; 1 h): 100 ± 0% | radiolytic stability, % intact radiopeptide ([6]; 4 h): 100 ± 0% | radiolytic stability after 24 h, intact radiopeptide [%] ([6]; 24 h): 93 ± 4% | Relative albumin-binding affinity, human blood plasma [7]: 1.00
SMILES: CC(C)C[C@H](NC(=O)[C@H](Cc1ccc(O)cc1)NC(=O)[C@@H](CCCNC(=N)N)NC(=O)[C@@H](CO)NC(=O)[C@H](Cc1ccccc1)NC(=O)[C@H](CC1CCCCC1)NC(=O)[C@H](CC(=O)O)NC(=O)[C@H](CCCCNC(=O)CCCc1ccc(I)cc1)NC(=O)CN1CCN(CC(=O)O)CCN(CC(=O)O)CCN(CC(=O)O)CC1)C(=O)N[C@@H](Cc1c[nH]c2ccccc12)C(=O)N[C@@H](CO)C(N)=O [[^177Lu]Lu-uPAR-01, metal not drawn]
